Test results taken from patent US20230234942A1, “COMPOUNDS FOR TREATING HUNTINGTON'S DISEASE” (PTC Therapeutics, Inc., priority 2020, published 2023).

Tested on: Endogenous Huntingtin Protein
Assay: Endogenous Huntingtin Protein Assay (ELISA-based MSD electrochemiluminescence)
Format: cell-based
Outline: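 Endogenous huntingtin measured on MSD plates coated with MW1 (polyglutamine-expanded) or MAB2166 capture antibody; lysates bound overnight at 4 °C. Signal developed with #56565 rabbit monoclonal and goat anti-rabbit SULFO-TAG (0.25 µg/mL, 1 h RT each), electrochemiluminescence read on SI 6000.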

[1] = Table 2, MSD plates coated with MW1 (expanded polyglutamine) or MAB2166 capture antibody, "inactive" = result above the detection limit of the assay

| Compound | IC50 [1] | IC50 (Table 3, selected compounds from WO/2019/191229 A1, same MSD assay) |
| --- | --- | --- |
| [2H]C([2H])([2H])Oc1cc(-c2ccc(-c3cnc(N4CCN[C@@H](CC)C4)nn3)c(O)c2)ncn1 [Cpd 133, 2-{3-[(3S)-3-ethylpiperazin-1-yl]-1,2,4-triazin-6-yl}-5-{6-[(^2H3)methyloxy]pyrimidin-4-yl}phenol] | 13 nM | – |
| CC(C)[C@H]1CN(c2ncc(-c3cc(F)c(-c4cn[nH]c4)cc3O)nn2)CCN1 [Cpd 158, 4-fluoro-2-{3-[(3S)-3-(propan-2-yl)piperazin-1-yl]-1,2,4-triazin-6-yl}-5-(1H-pyrazol-4-yl)phenol] | 5.6 nM | – |
| CC(C)[C@H]1CN(c2ncc(-c3ccc(-c4cnccn4)cc3O)nn2)CCN1 [Cpd 144, 2-{3-[(3S)-3-(propan-2-yl)piperazin-1-yl]-1,2,4-triazin-6-yl}-5-(pyrazin-2-yl)phenol] | 466 nM | – |
| Cn1cc(-c2ccc(-c3cnc(N4CCN[C@@H](C5CC5)C4)nn3)c(O)c2)cn1 [Cpd 12, 2-{3-[(3S)-3-cyclopropylpiperazin-1-yl]-1,2,4-triazin-6-yl}-5-(1-methyl-1H-pyrazol-4-yl)phenol] | 10.9 nM | – |
| C[C@@H]1CN(c2ncc(-c3ccc(-c4ccn(C)n4)cc3O)nn2)C[C@H](C2CCC2)N1 [Cpd 240, 2-{3-[(3S,5R)-3-cyclobutyl-5-methylpiperazin-1-yl]-1,2,4-triazin-6-yl}-5-(1-methyl-1H-pyrazol-3-yl)phenol] | 171 nM | – |
| C[C@@H]1CN(c2ncc(-c3ccc(-c4cc(F)c5nn(C)cc5c4)cc3O)nn2)C[C@@H](C)N1 [Cpd 76, 2-{3-[(3R,5R)-3,5-dimethylpiperazin-1-yl]-1,2,4-triazin-6-yl}-5-(7-fluoro-2-methyl-2H-indazol-5-yl)phenol] | 4.3 nM | – |
| CC(C)(C)[C@H]1CN(c2ncc(-c3ccc(-c4ncsn4)cc3O)nn2)CCN1 [Cpd 258, 2-{3-[(3S)-3-tert-butylpiperazin-1-yl]-1,2,4-triazin-6-yl}-5-(1,2,4-thiadiazol-3-yl)phenol] | 10.8 nM | – |
| CC(C)[C@@H]1CN(c2ncc(-c3ccc(-c4cn[nH]c4F)cc3O)nn2)C[C@H](C)N1 [Cpd 217, 5-(5-fluoro-1H-pyrazol-4-yl)-2-{3-[(3S,5R)-3-methyl-5-(propan-2-yl)piperazin-1-yl]-1,2,4-triazin-6-yl]phenol] | 67.9 nM | – |
| CN1CCN(c2ncc(-c3ccc(-c4cnc5nn(C)cc5c4)cc3O)nn2)CC1 [Cpd 110, 2-[3-(4-methylpiperazin-1-yl)-1,2,4-triazin-6-yl]-5-(2-methyl-2H-pyrazolo[3,4-b]pyridin-5-yl)phenol] | 24.9 nM | – |
| Oc1cc(-c2cn[nH]c2)ccc1-c1cnc(N2CCNCC2)nn1 [WO/2019/191229 A1 Cpd 328, reference compound] | – | 106 nM |
| CC(C)C1CN(c2ncc(-c3ccc(-c4cn[nH]c4)cc3O)nn2)CCN1C (centres unmarked) [Cpd 34, 2-{3-[4-methyl-3-(propan-2-yl)piperazin-1-yl]-1,2,4-triazin-6-yl}-5-(1H-pyrazol-4-yl)phenol] | 42 nM | – |
| Oc1cc(-n2nccn2)ccc1-c1cnc(N2CCN[C@@H](C3CC3)C2)nn1 [Cpd 11, 2-{3-[(3S)-3-cyclopropylpiperazin-1-yl]-1,2,4-triazin-6-yl}-5-(2H-1,2,3-triazol-2-yl)phenol] | 9.6 nM | – |
| Cc1cn2nc(-c3ccc(-c4cnc(N5C[C@@H](C)N[C@@H](C)C5)nn4)c(O)c3)ccc2n1 [Cpd 75, 2-{3-[(3R,5S)-3,5-dimethylpiperazin-1-yl]-1,2,4-triazin-6-yl}-5-(2-methylimidazo[1,2-b]pyridazin-6-yl)phenol] | 4.3 nM | – |
| CC(C)(C)[C@H]1CN(c2ncc(-c3ccc(-c4cn5ncnc5cn4)cc3O)nn2)CCN1 [Cpd 129, 2-{3-[(3S)-3-tert-butylpiperazin-1-yl]-1,2,4-triazin-6-yl}-5-([1,2,4]triazolo[1,5-a]pyrazin-6-yl)phenol] | 18.6 nM | – |
